In patent US20080242649A1, “New Combination 665” (priority 2007, published 2008):

Experiments:
Conditions in all cases: compound and its salts
[1] = molecular target: T1, recombinant human α1D receptor (Homo sapiens, UniProt P25100); assay: Adrenergic α1D [3H]-prazosin binding, HEK293 membranes
T1 construct: expressed in transfected cells; host or cells: HEK293 cells (membranes)
T1 sequence (P25100 1-572): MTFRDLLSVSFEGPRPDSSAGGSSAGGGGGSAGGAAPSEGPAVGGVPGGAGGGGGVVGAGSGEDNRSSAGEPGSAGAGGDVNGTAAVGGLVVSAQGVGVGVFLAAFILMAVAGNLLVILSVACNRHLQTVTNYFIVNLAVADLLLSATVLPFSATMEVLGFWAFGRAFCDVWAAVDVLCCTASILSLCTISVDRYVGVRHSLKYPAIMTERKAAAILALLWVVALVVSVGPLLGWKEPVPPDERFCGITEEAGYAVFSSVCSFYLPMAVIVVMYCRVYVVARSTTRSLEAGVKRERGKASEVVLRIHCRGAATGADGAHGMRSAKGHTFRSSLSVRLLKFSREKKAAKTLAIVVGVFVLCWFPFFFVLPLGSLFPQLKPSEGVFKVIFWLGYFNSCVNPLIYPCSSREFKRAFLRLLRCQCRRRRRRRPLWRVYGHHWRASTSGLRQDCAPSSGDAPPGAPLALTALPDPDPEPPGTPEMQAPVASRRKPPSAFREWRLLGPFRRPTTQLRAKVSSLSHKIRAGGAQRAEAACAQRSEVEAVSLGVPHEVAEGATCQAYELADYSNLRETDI
Experimental: Membranes were prepared from human embryonic kidney 293 (HEK293) cells expressing recombinant human α1D receptor. These were diluted in Assay Buffer (50 mM HEPES, 1 mM EDTA, 0.1% gelatin, pH 7.4) to provide a final concentration of membranes that gave a clear window between maximum and minimum specific binding.
(§1) Assays were performed in U-bottomed 96-well polypropylene plates. 10 μL [^3H]-prazosin (0.3 nM final concentration) and 10 μL of Compound A (10× final concentration) were added to each test well. For each assay plate 8 replicates were obtained for [^3H]-prazosin binding in the presence of 10 μL vehicle (10% (v/v) DMSO in Assay Buffer; defining maximum binding) or 10 μL BMY7378 (10 μM final concentration; defining non-specific binding (NSB)). Membranes were then added to achieve a final volume of 100 μL. […] Five washes with 250 μL wash buffer (50 mM HEPES, 1 mM EDTA, pH 7.4) were performed at 4° C. to remove unbound radioactivity. […] The plates were sealed (TopSeal A) and filter-bound radioactivity was measured with a scintillation counter (TopCount, Packard BioScience) using a 3-minute counting protocol.
(§2) Total specific binding (B0) was determined by subtracting the mean NSB from the mean maximum binding. […]

[2] = molecular target: T2, recombinant human adrenergic beta 1 receptors (Homo sapiens, UniProt P08588); assay: Adrenergic β1 [125I]-Iodocyanopindolol binding
T2 construct: purchased Euroscreen
Experimental: (§3) Membranes containing recombinant human adrenergic beta 1 receptors were obtained from Euroscreen. These were diluted in Assay Buffer (50 mM HEPES, 1 mM EDTA, 120 mM NaCl, 0.1% gelatin, pH 7.4) to provide a final concentration of membranes that gave a clear window between maximum and minimum specific binding.
as §1, with “PL [1251]-Iodocyanopindolol (0.036” for “μL [^3H]-prazosin (0.3”, “[^125]-Iodocyanopindolol” for “[^3H]-prazosin”, “Propranolol” for “BMY7378”, “EDTA, 120 mM NaCl,” for “EDTA,”
as §2

[3] = molecular target: T3, recombinant human Dopamine Subtype D2s receptors (Homo sapiens, UniProt P14416); assay: Dopamine D2 [3H]-spiperone binding
T3 construct: purchased Perkin Elmer
Experimental: as §3, with “Dopamine Subtype D2s” for “adrenergic beta 1”, “Perkin Elmer.” for “Euroscreen.”
Assays were performed in U-bottomed 96-well polypropylene plates. 30 PL [^3H]-spiperone (0.16 nM final concentration) and 30 μL of Compound A (10× final concentration) were added to each test well. For each assay plate 8 replicates were obtained for [^3H]-spiperone binding in the presence of 30 PL vehicle (10% (v/v) DMSO in Assay Buffer; defining maximum binding) or 30 μL Haloperidol (10 PM final concentration; defining non-specific binding (NSB)). Membranes were then added to achieve a final volume of 300 μL. […] Five washes with 250 μL wash buffer (50 mM HEPES, 1 mM EDTA, 120 mM NaCl, pH 7.4) were performed at 4° C. to remove unbound radioactivity. […] The plates were sealed (TopSeal A) and filter-bound radioactivity was measured with a scintillation counter (TopCount, Packard BioScience) using a 3-minute counting protocol.
as §2

T3 sequence (P14416 1-414 isoform P14416-2): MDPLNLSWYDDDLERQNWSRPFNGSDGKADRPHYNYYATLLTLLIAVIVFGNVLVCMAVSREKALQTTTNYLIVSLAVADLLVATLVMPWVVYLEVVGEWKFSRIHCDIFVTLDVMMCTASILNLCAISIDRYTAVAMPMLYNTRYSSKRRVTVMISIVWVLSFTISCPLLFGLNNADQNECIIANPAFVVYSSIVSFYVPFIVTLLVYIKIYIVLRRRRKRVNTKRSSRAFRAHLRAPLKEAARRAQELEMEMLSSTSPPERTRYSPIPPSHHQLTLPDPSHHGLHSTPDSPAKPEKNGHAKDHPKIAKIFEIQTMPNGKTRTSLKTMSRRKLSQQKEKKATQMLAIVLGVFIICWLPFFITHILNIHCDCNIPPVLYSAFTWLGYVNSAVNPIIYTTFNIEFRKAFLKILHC
T2 sequence (P08588 whole entry): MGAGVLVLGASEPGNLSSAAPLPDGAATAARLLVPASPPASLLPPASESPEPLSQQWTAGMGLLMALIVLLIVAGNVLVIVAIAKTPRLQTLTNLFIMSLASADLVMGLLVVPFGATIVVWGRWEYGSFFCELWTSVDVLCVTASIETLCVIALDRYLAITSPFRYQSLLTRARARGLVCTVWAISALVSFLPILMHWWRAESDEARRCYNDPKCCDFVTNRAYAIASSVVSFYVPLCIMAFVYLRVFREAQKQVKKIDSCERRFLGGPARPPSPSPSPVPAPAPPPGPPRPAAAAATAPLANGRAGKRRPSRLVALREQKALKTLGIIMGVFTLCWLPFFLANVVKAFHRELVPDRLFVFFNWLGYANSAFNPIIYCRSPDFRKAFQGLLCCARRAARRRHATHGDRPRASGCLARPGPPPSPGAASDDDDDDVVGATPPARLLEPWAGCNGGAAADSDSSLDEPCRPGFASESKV

CCN(CC)CCN(CCNCCc1ccc(O)c2[nH]c(=O)sc12)C(=O)CCOCCc1cccc2ccccc12 [N-[2-(Diethylamino)ethyl]-N-(2-{[2-(4-hydroxy-2-oxo-2,3-dihydro-1,3-benzothiazol-7-yl)ethyl]amino}ethyl)-3-[2-(1-naphthyl)ethoxy]propanamide]
≥ 10 fold: selectivity of β2 adrenoceptor agonism over adrenergic α1D [1] | selectivity of β2 adrenoceptor agonism over adrenergic β1 [2] | selectivity of β2 adrenoceptor agonism over dopamine D2 [3]
